Data: ChEMBL document CHEMBL1221215, “A domino effect in antifolate drug action in Escherichia coli” (Nat Chem Biol, 2008)
Active and inactive are the calls of the source. The calls are words filed in the database; no cut-off is given here.

Molecular target: T1, Dihydrofolate synthase/folylpolyglutamate synthase (Escherichia coli (strain K12)) (UniProt P08192)
T1 sequence (whole entry): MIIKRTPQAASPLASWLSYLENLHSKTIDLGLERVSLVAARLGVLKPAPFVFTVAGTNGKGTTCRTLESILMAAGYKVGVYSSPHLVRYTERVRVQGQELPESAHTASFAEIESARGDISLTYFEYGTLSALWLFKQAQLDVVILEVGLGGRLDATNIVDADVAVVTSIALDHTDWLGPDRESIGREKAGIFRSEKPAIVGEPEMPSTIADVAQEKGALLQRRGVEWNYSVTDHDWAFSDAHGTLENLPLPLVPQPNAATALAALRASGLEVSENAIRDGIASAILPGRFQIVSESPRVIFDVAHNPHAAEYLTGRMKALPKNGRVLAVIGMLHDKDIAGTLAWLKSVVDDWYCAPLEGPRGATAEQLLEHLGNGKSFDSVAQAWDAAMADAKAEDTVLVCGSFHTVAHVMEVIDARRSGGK
Assay: Inhibition of Escherichia coli K-12 recombinant His-tagged folylpoly-gamma-glutamate synthetase expressed in Escherichia coli BL21 at 200 uM LC-MS/MS method
Details: NCM3722

| inhibition | SMILES |
| --- | --- |
| Active | Nc1nc(=O)c2c([nH]1)NCC(CNc1ccc(C(=O)N[C@@H](CCC(=O)O)C(=O)O)cc1)=N2 |
| inactive | Nc1nc(=O)c2nc(CNc3ccc(C(=O)N[C@@H](CCC(=O)O)C(=O)O)cc3)cnc2[nH]1 |
| inactive | CN1c2c([nH]c(N)nc2=O)NCC1CNc1ccc(C(=O)N[C@@H](CCC(=O)O)C(=O)O)cc1 (some centres undefined) |
| inactive | COc1cc(Cc2cnc(N)nc2N)cc(OC)c1OC |
